# Test results: article PMC6445162, “Effects of NS2B-NS3 protease and furin inhibition on West Nile and Dengue virus replication” (Journal of Enzyme Inhibition and Medicinal Chemistry, 2017)
# “And” between values parts separate entries of the source, which are not always exact repeats. Equal entries are not always repeated. Where two headings read alike, the source gives them in different places. Peptide text beside a SMILES is read from it.
# What was measured:
# [1] = molecular target: DENV serotype 2 NS2B-NS3 protease construct (Dengue virus serotype 2); assay: enzyme inhibition (percent inhibition of the cleavage of a fluorogenic substrate); DENV-2 NS2B-NS3pro ~39 nM in well; 100 µM inhibitor, 125 µM substrate Phac-Lys-Arg-Arg-AMC (KM = 60 µM); 100 mM Tris pH 8.5, 20% glycerol, 0.01% Triton X-100; room temperature
# [2] = molecular target: T1, WNV NS2B-NS3 protease (West Nile virus, UniProt P06935); set-up: method as in PMID 23307694; conditions: reference compounds available from previous studies; cited from earlier work
# T1 construct: WNV NS2B 40-amino acid cofactor together with the NS3 protease domain
# T1 sequence (P06935 1502-1679): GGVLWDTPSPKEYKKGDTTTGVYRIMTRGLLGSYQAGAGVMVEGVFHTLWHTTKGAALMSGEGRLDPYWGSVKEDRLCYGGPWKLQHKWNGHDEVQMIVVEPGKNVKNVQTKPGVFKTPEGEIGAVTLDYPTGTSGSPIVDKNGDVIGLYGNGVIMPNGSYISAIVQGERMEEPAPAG
# T1 sequence (P06935 1424-1463): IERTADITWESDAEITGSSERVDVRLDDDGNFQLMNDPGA
# [3] = molecular target: T2, WNV-protease (West Nile virus, UniProt P06935); assay: Incubation with WNV protease and HPLC analysis of cleavage; format: biochemical; conditions: identical conditions, 4 h; data not shown
# T2 construct: WNV NS2B 40-amino acid cofactor together with the NS3 protease domain
# T2 sequence (P06935 1502-1679): as the sequence (P06935 1502-1679) above
# T2 sequence (P06935 1424-1463): as the sequence (P06935 1424-1463) above
# Procedure: The preferred P3-P1 Lys-Lys-Arg segment[29] was used for the preparation of a series of peptidic inhibitors. The peptides were modified in their prime site segment and at the P4 position (Table 2). […] In contrast, under identical conditions approximately 33% of the chromogenic substrate Phac-Lys-Lys-Arg-pNA was cleaved (data not shown). Thus, these compounds seem to be poor substrates of the WNV NS2B-NS3 protease and therefore, act as competitive inhibitors. The best Ki values <0.2 µM were obtained for peptides with the general structure phenylacetyl-Lys-Lys-Arg-NH2 containing an N-terminal guanidinomethyl substitution at the P4-residue.
# [4] = molecular target: T3, DENV serotype 2 NS2B-NS3 protease (Dengue virus type 2, UniProt P14340); assay: Enzyme kinetic inhibition of DENV-2 NS2B-NS3 protease construct; format: biochemical, Dengue virus serotype 2; conditions: 100 μM inhibitor in the presence of 125 μM substrate; read-out: % Inhib. (DENV)
# T3 construct: The proteolytic activity of WNV and DENV is located in the N-terminal part of its NS3 protein; made in house
# T3 sequence (P14340 1476-1653): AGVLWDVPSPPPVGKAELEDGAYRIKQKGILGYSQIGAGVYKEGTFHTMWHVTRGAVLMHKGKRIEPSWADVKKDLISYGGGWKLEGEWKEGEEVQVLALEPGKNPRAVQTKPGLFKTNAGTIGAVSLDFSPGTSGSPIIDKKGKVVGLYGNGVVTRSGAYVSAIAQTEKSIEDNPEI
# T3 sequence (P14340 1398-1437): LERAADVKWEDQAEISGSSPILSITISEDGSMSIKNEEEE
# Procedure: (§1) All measurements were performed at room temperature in black flat-bottom 96-well plates (Nunc, Langenselbold, Germany) using microplate readers (Tecan Safire^2, λex = 380 nm and λem = 460 nm, Tecan Group Ltd., Männedorf, Switzerland or Fluoroskan Ascent type 374, λex = 355 nm and λem = 460 nm; Thermo Fisher Scientific, Vantaa, Finland). The assays with the flavivirus protease constructs were performed with 125 μl buffer (100 mM Tris pH 8.5 containing 20% glycerol, 0.01% Triton X-100, and the inhibitor), 50 μl substrate solution, and were started by addition of 25 μl enzyme solution (total assay volume 200 μl).
# (§2) The DENV serotype 2 NS2B-NS3 protease construct was prepared from an identical clone as described by D’Arcy et al.[26] The purification of the protease was carried out in a buffer with high ion-strength and low pH value, in the absence of glycerol (20 mM Bis-Tris, 500 mM NaCl, pH 6.3), in order to prevent autolysis of the enzyme. Purification was performed by using a 5 ml HisTrapTM FF column (GE Healthcare) and subsequently, a HiLoad 16/60 SuperdexTM 75 column (GE Healthcare). The assays with the DENV-2 NS2B-NS3^pr° (∼39 nM in well) were performed with the substrate Phac-Lys-Arg-Arg-AMC ×3 TFA (125 µM, 62.5 µM and 31.25 µM in assay, KM = 60 µM). All Ki values were obtained from Dixon plots[27] and are the average of at least two measurements. Due to the weak potency of most compounds against the DENV-2 NS2B-NS3 protease construct, only the percentage of inhibition at a constant inhibitor concentration of 100 µM in the presence of 125 µM substrate was determined.
# [5] = molecular target: T1, WNV NS2B-NS3 protease; assay: Enzyme kinetic inhibition of WNV NS2B-NS3 protease construct (Dixon plot); format: biochemical; conditions: for Ki: covalently linked WNV NS2B-NS3 construct, substrate Phac-Leu-Lys-Lys-Arg-AMC, Dixon plots, average of at least two measurements
# Procedure: as §1
# For measurements with the covalently linked WNV NS2B-NS3 protease construct (∼4 nM in assay) the substrate Phac-Leu-Lys-Lys-Arg-AMC ×3 TFA (50 µM, 100 µM and 200 µM in assay, KM = 47.5 µM) was used, as described previously.
# as §2
# [6] = test system: DENV (strain 16681); assay: DENV plaque assay (virus yield from infected Huh-7 cells, titration on VeroE6); format: cell-based, Dengue virus serotype 2; conditions: preliminary studies
# Procedure: Inhibition of DENV propagation was determined by plaque assay as described recently[20]^,[28] with slight modifications. Huh-7 cells were seeded into 96-well plates and incubated overnight. The next day, cells were infected with DENV (strain 16681) at a multiplicity of infection (MOI) of 1 PFU/cell. Given concentrations of the compounds, dissolved in culture medium, were added to the cells together with the virus. After 2 h incubation at 37 °C, inocula were removed and cells were covered with fresh medium containing given concentrations of the inhibitors. Production of virus progeny was determined 48 h postinfection by titration of cell supernatants using a plaque assay on VeroE6 cells. Ribavirin was included as a reference compound.
compound,measurement,setting,value
4-(guanidinomethyl)-phenylacetyl-Lys-Lys-Arg-NH2 (peptide),"% inhibition at 100 μM inhibitor, 125 μM substrate",[1],65%
"N=C(N)NCCCCNC(=O)C(CCCCN)NC(=O)C(CCCCN)NC(=O)Cc1ccc(Cl)c(Cl)c1 (stereo not drawn) [3,4-di-Cl-Phac-Lys-Lys-agmatine]",Ki,[2],0.4 µM
N=C(N)NCCC[C@H](NC(=O)[C@H](CCCCN)NC(=O)[C@H](CCCCN)NC(=O)Cc1ccccc1)C(=O)Nc1ccc([N+](=O)[O-])cc1 [Phac-Lys-Lys-Arg-pNA] (HELM PEPTIDE1{[O=C(Cc1ccccc1)[*:2]].K.K.R.[O=[N+]([O-])c1ccc(N[*:1])cc1]}$$$$V2.0),amount cleaved by the WNV-protease,[3],approximately 33%
N=C(N)NCCC[C@H](NC(=O)[C@H](CCCCN)NC(=O)[C@H](CCCCN)NC(=O)Cc1ccccc1)C(=O)NCC(=O)NCC(N)=O [inhibitor 17] (HELM PEPTIDE1{[O=C(Cc1ccccc1)[*:2]].K.K.R.G.G.[am]}$$$$V2.0),inhibition at 100 µM,[4],35.1%
same,Ki,[5],1.56 µM
"N=C(N)NC1CCC(CNC(=O)C(CCCCN)NC(=O)C(Cc2ccc(CN)cc2)NC(=O)Cc2ccccc2)CC1 (stereo not shown) [inhibitor 3, Phac-Phe(4-AMe)-Lys-GCMA]",inhibition at 100 µM,[4],12.4%
same,fold reduced potency against WNV protease,[5]; compared with reference inhibitor 2,4 fold
same,Ki,[5],4.7 µM and 4.71 µM
N=C(N)NCCC[C@H](NC(=O)[C@H](CCCCN)NC(=O)[C@H](CCCCN)NC(=O)Cc1ccc2c(c1)OCO2)C(N)=O [inhibitor 32],inhibition at 100 µM,[4],19.9%
same,Ki,[5],0.68 µM
N=C(N)NCCC[C@H](NC(=O)[C@H](CCCCN)NC(=O)[C@H](CCCCN)NC(=O)CC1CCCCC1)C(N)=O [inhibitor 41],inhibition at 100 µM,[4],36.7%
same,Ki,[5],4.8 µM
N=C(N)NCCC[C@H](NC(=O)[C@H](CCCCN)NC(=O)[C@H](CCCCN)NC(=O)Cc1ccc(Cl)c(Cl)c1)C(=O)NCC(N)=O [inhibitor 30] (HELM PEPTIDE1{[O=C(Cc1ccc(Cl)c(Cl)c1)[*:2]].K.K.R.G.[am]}$$$$V2.0),inhibition at 100 µM,[4],45%
same,Ki,[5],1.8 µM
N=C(N)NCCC[C@H](NC(=O)[C@H](CCCCN)NC(=O)[C@H](CCCCN)NC(=O)Cc1cccc(CN)c1)C(N)=O [inhibitor 36],inhibition at 100 µM,[4],12.4%
same,Ki,[5],0.36 µM
N=C(N)N[C@H]1CC[C@H](CNC(=O)[C@H](CCCCN)NC(=O)[C@H](CCCCN)NC(=O)Cc2ccc(Cl)c(Cl)c2)CC1 [inhibitor 1],antiviral effect in DENV-infected cells,[6],no antiviral effect
CN(CC(N)=O)C(=O)[C@H](CCCNC(=N)N)NC(=O)[C@H](CCCCN)NC(=O)[C@H](CCCCN)NC(=O)Cc1ccccc1 [inhibitor 24] (HELM PEPTIDE1{[O=C(Cc1ccccc1)[*:2]].K.K.R.[Sar].[am]}$$$$V2.0),inhibition at 100 µM,[4],3.2%
same,Ki,[5],50 µM
CC(C)[C@H](NC(=O)[C@H](CCCNC(=N)N)NC(=O)[C@H](CCCCN)NC(=O)[C@H](CCCCN)NC(=O)Cc1ccccc1)C(N)=O [inhibitor 21] (HELM PEPTIDE1{[O=C(Cc1ccccc1)[*:2]].K.K.R.V.[am]}$$$$V2.0),inhibition at 100 µM,[4],12%
same,Ki,[5],105 µM
C[C@H](NC(=O)[C@H](CCCNC(=N)N)NC(=O)[C@H](CCCCN)NC(=O)[C@H](CCCCN)NC(=O)Cc1ccccc1)C(N)=O [inhibitor 19] (HELM PEPTIDE1{[O=C(Cc1ccccc1)[*:2]].K.K.R.A.[am]}$$$$V2.0),inhibition at 100 µM,[4],5.6%
same,Ki,[5],25 µM
N=C(N)NCCC[C@H](NC(=O)[C@H](CCCCN)NC(=O)[C@H](CCCCN)NC(=O)Cc1ccc(Cl)c(Cl)c1)C(N)=O [inhibitor 29],inhibition at 100 µM,[4],25.1%
same,Ki,[5],1.13 µM
